Data from article PMC5759193, “The tankyrase inhibitor G007-LK inhibits small intestine LGR5^+ stem cell proliferation without altering tissue morphology” (Biological Research, 2018).
Several values for one entry are separate records, joined by “and”; a condition that tells them apart may be missing. Equal values may be shown once. Read-outs that look alike come from different tables or passages of the source.

Key:
canonical WNT signalling = assay: β-catenin IHC of duodenal crypt base cells; assay type: in vivo, mice; conditions: gavage 10 mg/kg n = 2 and 50 mg/kg n = 1
Procedure: (§1) Mouse tissue was fixed overnight in 4% PFA, routinely processed and paraffin embedded. The paraffin-embedded tissue was sectioned at 3–4.5 μm. IHC staining was performed as previously described, with primary antibodies against β-catenin, green fluorescent protein (GFP), Lysozyme and Chromogranin A (rabbit monoclonal anti-β-catenin, Abcam ab32572; rabbit monoclonal anti-GFP, Cell Signaling Technology #2956; rabbit monoclonal anti-Lysozyme, Abcam ab108508; rabbit polyclonal anti-Chromogranin A, Abcam ab15160). For quantitative analyses of the IHC-stained tissue sections, the slides were scanned using the Hamamatsu Digital Slide Scanner NanoZoomer 2.0-HT C9600-13 and the number of positive and negative cells in up to 10 crypts or villi from each animal was counted manually. Periodic acid-Schiff (PAS) and Alcian blue staining was performed at the Department of Pathology, Oslo University Hospital, using standard protocols.
To verify that the administered doses of the tankyrase inhibitor had the expected effect on canonical WNT signalling, we stained duodenal tissue sections with a β-catenin-specific antibody. Nuclear localisation of β-catenin implied active canonical WNT signalling in vehicle (n = 3), (Fig. 4a) and G007-LK-treated (gavage 10 mg/kg, n = 2 and 50 mg/kg, n = 1) mice (Fig. 4b).

[1] = Pharmacokinetic analysis in plasma after G007-LK enriched chow; assay type: in vivo, ICR mice; conditions: for G007-LK Concentration in plasma, Mean: n=5; for Cmax: 0 h
Procedure: To address the pharmacokinetic properties of the tankyrase inhibitor G007-LK, ICR mice (n = 25) were treated for 3 days with a G007-LK-enriched diet, containing 100 mg G007-LK/kg chow. […] Pharmacokinetic parameters of G007-LK following administration of enriched diet for three consecutive days are listed in Table 1.

[2] = system: LGR5^+ intestinal stem cells; assay: Lineage tracing from LGR5^+ intestinal stem cells in duodenum (confocal microscopy, GFP IHC)
Procedure: Pieces of duodenum from mice that had undergone induced lineage tracing were fixed for 30 min in 4% paraformaldehyde (PFA) at room temperature, rinsed in PBS and immediately prepared for confocal microscopic analyses. Under a stereo microscope one row of intestinal villi was sectioned from the duodenal wall with a scalpel, rinsed in dH2O and embedded in Mowiol 4-88 (Sigma-Aldrich). The samples were examined with a Zeiss LSM 780 confocal microscope (Carl Zeiss MicroImaging GmbH) equipped with a multiline argon laser (458/488/514 nm), a 10 mW DPSS laser (561 nm), a 405-30 CW laser diode (405 nm), and a helium–neon (HeNe) laser (633 nm). The objective used was a Zeiss Plan-Apochromat 20×/0.8 DIC II. To calculate the numbers and volumes of the traced cells, confocal Z-stacks were analysed with Imaris 7.7.2 (Bitplane AG). A similar threshold for the segmentation of the traced cells was used in all Z-stacks examined. Image visualisations were performed with the basic Zeiss LSM 780 ZEN 2010 software, Photoshop CS4 (Adobe), and Imaris 7.7.2.
as §1

[3] = cited from earlier work
duodenum = assay: Duodenal morphology and cellular composition (H&E, PAS, Alcian blue, Lysozyme, Chromogranin A); assay type: in vivo, mice
Procedure: as §1
Similar data for the goblet cells were obtained by Alcian blue staining of acidic mucin (Additional file 5: Figure S4A–C).

[4] = Tolerance: body mass, food consumption, clinical observations
Procedure: Medicilon Preclinical Research (Shanghai) LCC performed the pharmacokinetic studies; in brief, ICR mice (n = 25) from Sion-British SIPPR/BK Lab Animal Ltd, Shanghai were fed 100 mg G007-LK/kg chow enriched diet ad libitum for 3 consecutive days, body mass and food consumption was measured daily.
The body mass of the G007-LK-treated mice and the amount of consumed chow was measured 5 days per week. […] The mice were treated with G007-LK for 9 days by oral gavage or 21 days with the enriched diet.
The tolerance of G007-LK treatment in the experimental mice used in this study was further evaluated by short-term oral gavage treatment daily for 9 days with 10 or 50 mg G007-LK/kg body mass (Fig. 1d). […] For long-term treatment, mice were fed G007-LK-enriched diets, 100 or 1000 mg G007-LK/kg chow for up to 3 weeks (Fig. 1f).

duodenal crypt cells = assay: BrdU labelling of duodenal crypt cells; assay type: in vivo, mice; conditions: 100 mg/kg chow
Procedure: Slides with tissue sections were deparaffinised in xylene and re-hydrated through a graded series of ethanol. Heat-antigen retrieval was performed in 10 mM sodium-citrate buffer supplemented with 0.05% Tween 20 in a pressure cooker for 3 min and the slides were slowly cooled down. Slides were rinsed in washing buffer (PBS supplemented with 0.1% Tween), incubated with blocking buffer (PBS supplemented with 5% goat serum and 5% bovine serum albumin (BSA)) for 30 min at room temperature and rinsed in washing buffer. Primary antibodies (mouse monoclonal anti-BrdU, ThermoFisher #B35128; monoclonal anti-GFP, Cell Signalling #2956) diluted in blocking buffer were applied and incubated over night at 4 °C. […]
Mice were treated with BrdU (100 mg/kg body mass) 1 h before being sacrificed or with daily 1 mg BrdU injections for 7 days prior to sacrifice. […] BrdU-labelled cells were detected using a BrdU IHC kit (Abcam #125306) according to the manufacturer’s protocol, or using a monoclonal anti-BrdU antibody (ThermoFisher #B35128) and a Mouse-on-Mouse kit (Vector Laboratories #BMK-2202) according to the IHC protocol outlined above. The fraction of BrdU-labelled crypt cells was calculated.

[5] = ICR mice, female, diet containing G007-LK 100 mg/kg chow 3 days, plasma
[6] = 6 months, 158 mg/kg chow, high fat-based diet
[7] = ICR mice, 100 mg G007-LK/kg chow, 3 days

## CS(=O)(=O)c1ccc(-c2nnc(/C=C/c3nnc(-c4ccc(C#N)cc4)o3)n2-c2ccccc2Cl)nc1 [G007-LK]
Canonical WNT signalling
  fraction of β-catenin-positive nuclei in crypt base cells vs control: significant (t test, p < 0.05) reduction
[1]; 0 h after diet removal
  G007-LK Concentration in plasma, single animals G1-1 to G1-5: 773,96 ng/mL and 795,28 ng/mL and 756,04 ng/mL and 696,04 ng/mL and 791,2 ng/mL
  G007-LK Concentration in plasma, Mean: 762,5 ng/mL
[1]; 1 h after diet removal
  G007-LK Concentration in plasma, single animals G1-1 to G1-5: 676,41 ng/mL and 696,8 ng/mL and 608,34 ng/mL and 669,24 ng/mL and 689,94 ng/mL
  G007-LK Concentration in plasma, Mean: 668,15 ng/mL
[1]; 2 h after diet removal
  G007-LK Concentration in plasma, single animals G1-1 to G1-5: 639,46 ng/mL and 649,54 ng/mL and 610,19 ng/mL and 589,18 ng/mL and 567,65 ng/mL
  G007-LK Concentration in plasma, Mean: 611,2 ng/mL
[1]; 4 h after diet removal
  G007-LK Concentration in plasma, single animals G1-1 to G1-5: 335,27 ng/mL and 378,3 ng/mL and 216,65 ng/mL and 474,86 ng/mL and 316,33 ng/mL
  G007-LK Concentration in plasma, Mean: 344,28 ng/mL
[1]; 12 h after diet removal
  G007-LK Concentration in plasma, single animals G1-1 to G1-5: 52,75 ng/mL and 105,7 ng/mL and 112,65 ng/mL and 158,02 ng/mL and 111,12 ng/mL
  G007-LK Concentration in plasma, Mean: 108,05 ng/mL
[1]; ICR mice, diet containing G007-LK 100 mg/kg chow 3 days, plasma, read-out: Cmax
  Cmax: 1440 ± 80 nM
[1]; [5]
  AUC(0-t): 4119.80 ng·h/mL
  AUC(0-∞): 4770.32 ng·h/mL
  Cmax: 762.50 ng/mL
[1]; ICR mice, female, diet containing G007-LK 100 mg/kg chow ad libitum 3 days, plasma, non-compartmental
  t1/2: 4.17 h
[1]; enriched chow vs IV data of ref 26, calculated from AUC(0-t)
  F^a bioavailability: 22.22%
[1]; enriched chow vs IV data of ref 26, calculated from AUC(0-∞)
  F^b bioavailability: 20.69%
[2]; 100 mg/kg chow 2 weeks, G007-LK-free diet 2 days before tamoxifen, tracing 7 days
  lineage tracing after stop of treatment (G007-LK-stop, reversibility): presence of lineage traced cells throughout the entire length of the villi
[2]; GFP IHC, G007-LK treated mice n = 10 (control 0.51)
  average ratio of crypts with GFP positive cells versus total counted crypts: 0.39
[2]; GFP IHC, n = 10 treated, p = 0.05
  reduction of ratio of crypts with GFP positive cells versus total counted crypts, compared with control: 23%
[2]; Lgr5-EGFP-CreERT2;R26R-tdTomato mice, 100 mg/kg chow 6 days, started 24–36 h after tamoxifen
  location of lineage traced cells when treatment starts after tamoxifen: lineage traced cells were detected in the middle of the duodenal villi
[2]; duodenum
  number of villi with traced cells vs control: significantly (t test, p < 0.05) reduced
[2]; image analysis, duodenum
  number of lineage traced cells vs control: significant (t test, p < 0.05) reduction
  volume of lineage traced cells vs control: significant (t test, p < 0.05) reduction
[2]; long-term, 100 mg/kg chow, duodenum
  lineage tracing from LGR5^+ stem cells: markedly reduced lineage tracing
[3]; [6]
  glucose metabolism: improved glucose tolerance and insulin sensitivity
  toxic effects: did not lead to visible toxic effects
[3]; intermediate and high doses, up to 100 mg/kg body mass once daily 14–20 days, i.p. or orally
  small intestine toxicity: partially reversible focal necrosis and inflammation in the small intestine
duodenum; 9 days gavage 10 or 50 mg/kg, 21 days enriched diet 100 or 1000 mg/kg chow
  gross morphology of the duodenum (crypts and villi), H&E: maintained
duodenum; distal duodenum and ileum
  crypt abscesses: occasional crypt abscesses were observed
  morphology of epithelial cell layer: did not induce major morphological changes
duodenum; duodenum
  distribution of Paneth cells in crypt base (Lysozyme IHC) vs control: equal distribution pattern
  distribution of enteroendocrine cells (Chromogranin A IHC) vs control: comparable distribution patterns
duodenum; duodenum, gavage 50 mg/kg
  number of PAS stained goblet cells vs vehicle: no significant difference
duodenum; proximal duodenum, gavage treated vs control
  crypt:villus ratios, crypt duplication rates or size, goblet cell number or size, crypts per villus base: no statistically significant (t test, p > 0.05) changes
[4]; [7]
  changes in body mass: minor, not statistically significant
  food consumption: stable day 2 and 3 of the G007-LK enriched chow administration period, but statistically significant lower (t test, p < 0.05) the first day
  macroscopic phenotypes: No obvious macroscopic abnormal phenotypes were observed
[4]; daily doses up to approximately 200 mg/kg body mass, gavage or enriched diet
  tolerability: well tolerated
Duodenal crypt cells; n = 3
  BrdU-labelled cells after daily BrdU for 7 days: BrdU-labelled cells were observed at the tips of the villi
Duodenal crypt cells; n = 7, BrdU 1 h (control 0.28), p < 0.05
  ratio of BrdU positive crypt cells: 0.14
